According to US12503461B2, “Pesticidally active heterocyclic derivatives with sulfur and sulfoximine containing substituents” (SYNGENTA CROP PROTECTION AG, priority 2019, dated 2025):

What was measured:
Type in all cases: in vivo
[1] = test system: Spodoptera littoralis (Egyptian Cotton Leaf Worm); experiment: Example B7: Spodoptera littoralis (Egyptian cotton leaf worm), sprayed cotton leaf discs, L1 larvae; conditions: foliar, 72 h, application rate of 200 ppm, 3 days after infestation, in comparison to untreated samples
Method: Example B7: Spodoptera littoralis (Egyptian Cotton Leaf Worm
Cotton leaf discs were placed onto agar in 24-well microtiter plates and sprayed with aqueous test solutions prepared from 10′000 ppm DMSO stock solutions. After drying the leaf discs were infested with five L1 larvae. The samples were assessed for mortality, anti-feeding effect, and growth inhibition in comparison to untreated samples 3 days after infestation. Control of Spodoptera littoralis by a test sample is given when at least one of the categories mortality, anti-feedant effect, and growth inhibition is higher than the untreated sample.

[2] = test system: Plutella xylostella (Diamond Back Moth); experiment: Example B4: Plutella xylostella (diamond back moth), treated artificial diet, eggs; conditions: 192 h, application rate of 200 ppm, 8 days after infestation, in comparison to untreated samples, read-out: effect in at least one of the two categories (mortality or growth inhibition)
Method: Example B4: Plutella xylostella (Diamond Back Moth
24-well microtiter plates with artificial diet were treated with aqueous test solutions prepared from 10′000 ppm DMSO stock solutions by pipetting. After drying, Plutella eggs were pipetted through a plastic stencil onto a gel blotting paper and the plate was closed with it. The samples were assessed for mortality and growth inhibition in comparison to untreated samples 8 days after infestation.

[3] = test system: Myzus persicae (Green Peach Aphid); experiment: Example B5: Myzus persicae (green peach aphid), feeding/contact activity, sprayed sunflower leaf discs; conditions: foliar, 144 h, application rate of 200 ppm, aphid population of mixed ages, 6 days after infestation
Method: Example B5: Myzus persicae (Green Peach Aphid). Feeding/Contact Activity
Sunflower leaf discs were placed onto agar in a 24-well microtiter plate and sprayed with aqueous test solutions prepared from 10′000 ppm DMSO stock solutions. After drying, the leaf discs were infested with an aphid population of mixed ages. The samples were assessed for mortality 6 days after infestation.

[4] = test system: Diabrotica balteata (Corn Root Worm); experiment: Example B1: Diabrotica balteata (corn root worm), sprayed maize sprouts on agar, L2 larvae; conditions: 96 h, application rate of 200 ppm, 4 days after infestation, in comparison to untreated samples, read-out: effect in at least one of the two categories (mortality or growth inhibition)
Method: Example B1: Diabrotica balteata (Corn Root Worm
Maize sprouts placed onto an agar layer in 24-well microtiter plates were treated with aqueous test solutions prepared from 10′000 ppm DMSO stock solutions by spraying. After drying, the plates were infested with L2 larvae (6 to 10 per well). The samples were assessed for mortality and growth inhibition in comparison to untreated samples 4 days after infestation.

[5] = test system: Euschistus heros (Neotropical Brown Stink Bug); experiment: Example B2: Euschistus heros (neotropical brown stink bug), sprayed soybean leaves, N2 nymphs; conditions: 120 h, application rate of 200 ppm, 5 days after infestation, in comparison to untreated samples, read-out: effect in at least one of the two categories (mortality or growth inhibition)
Method: Example B2: Euschistus heros (Neotropical Brown Stink Bug
Soybean leaves on agar in 24-well microtiter plates were sprayed with aqueous test solutions prepared from 10′000 ppm DMSO stock solutions. After drying the leaves were infested with N2 nymphs. The samples were assessed for mortality and growth inhibition in comparison to untreated samples 5 days after infestation.

CCN=S(=O)(c1ccc2oc(-c3ncc(N(C)C(C)=O)cc3S(=O)(=O)CC)nc2c1)C(F)(F)F (stereo not drawn) [P3, N-[5-ethylsulfonyl-6-[5-[N-ethyl-S-(trifluoromethyl)sulfonimidoyl]-1,3-benzoxazol-2-yl]-3-pyridyl]-N-methyl-acetamide]
≥ 80%: percent control (mortality, anti-feeding effect or growth inhibition) at 200 ppm [1] | percent effect (mortality or growth inhibition) at 200 ppm [2] | mortality at 200 ppm [3] | percent effect (mortality or growth inhibition) at 200 ppm [4]

CCN=S(=O)(c1ccc2oc(-c3ncc(C4(C#N)CC4)cc3S(=O)(=O)CC)nc2c1)C(F)(F)F (stereo not drawn) [P8, 1-[5-ethylsulfonyl-6-[5-[N-ethyl-S-(trifluoromethyl)sulfonimidoyl]-1,3-benzoxazol-2-yl]-3-pyridyl]cyclopropanecarbonitrile]
≥ 80%: percent control (mortality, anti-feeding effect or growth inhibition) at 200 ppm [1] | percent effect (mortality or growth inhibition) at 200 ppm [2] | percent effect (mortality or growth inhibition) at 200 ppm [4] | effect (mortality or growth inhibition) at 200 ppm [5]

CCN=S(=O)(c1ccc2oc(-c3ncc(Oc4ccccn4)cc3S(=O)(=O)CC)nc2c1)C(F)(F)F (stereo not shown) [P10, ethylimino-[2-[3-ethylsulfonyl-5-(2-pyridyloxy)-2-pyridyl]-1,3-benzoxazol-5-yl]-oxo-(trifluoromethyl)-λ^6-sulfane]
≥ 80%: percent control (mortality, anti-feeding effect or growth inhibition) at 200 ppm [1] | percent effect (mortality or growth inhibition) at 200 ppm [2] | percent effect (mortality or growth inhibition) at 200 ppm [4] | effect (mortality or growth inhibition) at 200 ppm [5]

CCS(=O)(=O)c1cccnc1-c1nc2cc(S(=O)(=NC3CC3)C(F)(F)F)ccc2o1 (stereo not shown) [P13, cyclopropylimino-[2-(3-ethylsulfonyl-2-pyridyl)-1,3-benzoxazol-5-yl]-oxo-(trifluoromethyl)-λ^6-sulfane]
≥ 80%: percent control (mortality, anti-feeding effect or growth inhibition) at 200 ppm [1] | percent effect (mortality or growth inhibition) at 200 ppm [2] | mortality at 200 ppm [3] | percent effect (mortality or growth inhibition) at 200 ppm [4]

CCS(=O)(=O)c1cccnc1-c1nc2cc(S(=N)(=O)C(F)(F)F)ccc2o1 (stereo not shown) [P16, [2-(3-ethylsulfonyl-2-pyridyl)-1,3-benzoxazol-5-yl]-imino-oxo-(trifluoromethyl)-λ^6-sulfane]
≥ 80%: percent control (mortality, anti-feeding effect or growth inhibition) at 200 ppm [1] | percent effect (mortality or growth inhibition) at 200 ppm [2] | percent effect (mortality or growth inhibition) at 200 ppm [4] | effect (mortality or growth inhibition) at 200 ppm [5]

CCN=S(=O)(c1ccc2oc(-c3ncc(OCC(F)(F)F)cc3S(=O)(=O)CC)nc2c1)C(F)(F)F (stereo not shown) [P22, ethylimino-[2-[3-ethylsulfonyl-5-(2,2,2-trifluoroethoxy)-2-pyridyl]-1,3-benzoxazol-5-yl]-oxo-(trifluoromethyl)-λ^6-sulfane]
≥ 80%: percent control (mortality, anti-feeding effect or growth inhibition) at 200 ppm [1] | percent effect (mortality or growth inhibition) at 200 ppm [2] | percent effect (mortality or growth inhibition) at 200 ppm [4] | effect (mortality or growth inhibition) at 200 ppm [5]

CCS(=O)(=O)c1cc(OCC(F)(F)F)cnc1-c1nc2cc(S(=O)(=NC(C)=O)C(F)(F)F)ccc2o1 (stereo not shown) [P24, N-[[2-[3-ethylsulfonyl-5-(2,2,2-trifluoroethoxy)-2-pyridyl]-1,3-benzoxazol-5-yl]-oxo-(trifluoromethyl)-λ^6-sulfanylidene]acetamide]
≥ 80%: percent control (mortality, anti-feeding effect or growth inhibition) at 200 ppm [1] | percent effect (mortality or growth inhibition) at 200 ppm [2] | percent effect (mortality or growth inhibition) at 200 ppm [4] | effect (mortality or growth inhibition) at 200 ppm [5]

CCS(=O)(=O)c1cc(Oc2ccccn2)cnc1-c1nc2cc(S(=O)(=NC(C)=O)C(F)(F)F)ccc2o1 (stereo not shown) [P25, N-[[2-[3-ethylsulfonyl-5-(2-pyridyloxy)-2-pyridyl]-1,3-benzoxazol-5-yl]-oxo-(trifluoromethyl)-λ^6-sulfanylidene]acetamide]
≥ 80%: percent control (mortality, anti-feeding effect or growth inhibition) at 200 ppm [1] | percent effect (mortality or growth inhibition) at 200 ppm [2] | percent effect (mortality or growth inhibition) at 200 ppm [4] | effect (mortality or growth inhibition) at 200 ppm [5]

CCS(=O)(=O)c1cc(C2(C#N)CC2)cnc1-c1nc2cc(S(=O)(=NC)C(F)(F)F)ccc2o1 (stereo not drawn) [P29, 1-[5-ethylsulfonyl-6-[5-[N-methyl-S-(trifluoromethyl)sulfonimidoyl]-1,3-benzoxazol-2-yl]-3-pyridyl]cyclopropanecarbonitrile]
≥ 80%: percent control (mortality, anti-feeding effect or growth inhibition) at 200 ppm [1] | percent effect (mortality or growth inhibition) at 200 ppm [2] | percent effect (mortality or growth inhibition) at 200 ppm [4] | effect (mortality or growth inhibition) at 200 ppm [5]

CCS(=O)(=O)c1cc(C2(C#N)CC2)cnc1-c1nc2cc(S(=O)(=NC3CC3)C(F)(F)F)ccc2n1C (stereo not drawn) [P31, 1-[6-[5-[N-cyclopropyl-S-(trifluoromethyl)sulfonimidoyl]-1-methyl-benzimidazol-2-yl]-5-ethylsulfonyl-3-pyridyl]cyclopropanecarbonitrile]
≥ 80%: percent effect (mortality or growth inhibition) at 200 ppm [2] | percent effect (mortality or growth inhibition) at 200 ppm [4] | effect (mortality or growth inhibition) at 200 ppm [5]

CCN=S(=O)(c1ccc2oc(-c3ncc(-c4ncccn4)cc3S(=O)(=O)CC)nc2c1)C(F)(F)F (stereo not shown) [P35, ethylimino-[2-(3-ethylsulfonyl-5-pyrimidin-2-yl-2-pyridyl)-1,3-benzoxazol-5-yl]-oxo-(trifluoromethyl)-λ^6-sulfane]
≥ 80%: percent control (mortality, anti-feeding effect or growth inhibition) at 200 ppm [1] | percent effect (mortality or growth inhibition) at 200 ppm [2] | percent effect (mortality or growth inhibition) at 200 ppm [4] | effect (mortality or growth inhibition) at 200 ppm [5]

CCS(=O)(=O)c1cc(-c2ncccn2)cnc1-c1nc2cc(S(=N)(=O)C(F)(F)F)ccc2o1 (stereo not shown) [P36, [2-(3-ethylsulfonyl-5-pyrimidin-2-yl-2-pyridyl)-1,3-benzoxazol-5-yl]-imino-oxo-(trifluoromethyl)-λ^6-sulfane]
≥ 80%: percent control (mortality, anti-feeding effect or growth inhibition) at 200 ppm [1] | percent effect (mortality or growth inhibition) at 200 ppm [2] | percent effect (mortality or growth inhibition) at 200 ppm [4] | effect (mortality or growth inhibition) at 200 ppm [5]

CCS(=O)(=O)c1cc(-c2ncc(Cl)cn2)cnc1-c1nc2cc(S(=N)(=O)C(F)(F)F)ccc2o1 (stereo not shown) [P42, [2-[5-(5-chloropyrimidin-2-yl)-3-ethylsulfonyl-2-pyridyl]-1,3-benzoxazol-5-yl]-imino-oxo-(trifluoromethyl)-λ^6-sulfane]
≥ 80%: percent control (mortality, anti-feeding effect or growth inhibition) at 200 ppm [1] | percent effect (mortality or growth inhibition) at 200 ppm [2] | percent effect (mortality or growth inhibition) at 200 ppm [4] | effect (mortality or growth inhibition) at 200 ppm [5]

CCS(=O)(=O)c1ccc(-n2cncn2)nc1-c1nc2cc(S(=N)(=O)C(F)(F)F)ccc2n1C (stereo not shown) [P44, [2-[3-ethylsulfonyl-6-(1,2,4-triazol-1-yl)-2-pyridyl]-1-methyl-benzimidazol-5-yl]-imino-oxo-(trifluoromethyl)-λ^6-sulfane]
≥ 80%: percent control (mortality, anti-feeding effect or growth inhibition) at 200 ppm [1] | percent effect (mortality or growth inhibition) at 200 ppm [2] | mortality at 200 ppm [3] | percent effect (mortality or growth inhibition) at 200 ppm [4]

CCN=S(=O)(c1ccc2c(c1)nc(-c1nc(-n3cnc(C(F)(F)F)n3)ccc1S(=O)(=O)CC)n2C)C(F)(F)F (stereo not shown) [P49, ethylimino-[2-[3-ethylsulfonyl-6-[3-(trifluoromethyl)-1,2,4-triazol-1-yl]-2-pyridyl]-1-methyl-benzimidazol-5-yl]-oxo-(trifluoromethyl)-λ^6-sulfane]
≥ 80%: percent control (mortality, anti-feeding effect or growth inhibition) at 200 ppm [1] | percent effect (mortality or growth inhibition) at 200 ppm [2] | percent effect (mortality or growth inhibition) at 200 ppm [4]

CCS(=O)(=O)c1ccc(-c2ncccn2)nc1-c1nc2cc(S(=N)(=O)C(F)(F)F)ccc2o1 (stereo not shown) [P54, [2-(3-ethylsulfonyl-6-pyrimidin-2-yl-2-pyridyl)-1,3-benzoxazol-5-yl]-imino-oxo-(trifluoromethyl)-λ^6-sulfane]
≥ 80%: percent control (mortality, anti-feeding effect or growth inhibition) at 200 ppm [1] | percent effect (mortality or growth inhibition) at 200 ppm [2] | percent effect (mortality or growth inhibition) at 200 ppm [4]

CCN=S(=O)(c1ccc2oc(-c3nc(-c4ncccn4)ccc3S(=O)(=O)CC)nc2c1)C(F)(F)F (stereo not shown) [P55, ethylimino-[2-(3-ethylsulfonyl-6-pyrimidin-2-yl-2-pyridyl)-1,3-benzoxazol-5-yl]-oxo-(trifluoromethyl)-λ^6-sulfane]
≥ 80%: percent control (mortality, anti-feeding effect or growth inhibition) at 200 ppm [1] | percent effect (mortality or growth inhibition) at 200 ppm [2] | percent effect (mortality or growth inhibition) at 200 ppm [4]
